Calls of active or inactive are those of the source. The rule behind the calls is not given here. Non-standard residues stand in square brackets, D forms with d. Residues, ends and D or L forms follow the SMILES beside them. NMeI = CC[C@H](C)[C@H](NC)C(=O)O; NMeD = CN[C@@H](CC(=O)O)C(=O)O; NMeV = CN[C@H](C(=O)O)C(C)C; Pip = O=C(O)[C@@H]1CCCCN1; Lac = C[C@H](O)C(=O)O
Tests used:
Bacillus subtilis [1] = assay: Antibacterial activity against Bacillus subtilis NBRC3134 at 100 ug/disk by paper disk method; type: functional, organism-based
Escherichia coli [2] = assay: Antibacterial activity against Escherichia coli NBRC14237 at 100 ug/disk by paper disk method; type: functional, organism-based
Aspergillus fumigatus [3] = assay: Antifungal activity against Aspergillus fumigatus; type: functional, organism-based
Cryptococcus neoformans [4] = assay: Antimicrobial activity against Cryptococcus neoformans; type: functional, organism-based
Salmonella enteritidis [5] = assay: Antibacterial activity against Salmonella enteritidis NBRC3313 at 100 ug/disk by paper disk method; type: functional, organism-based; settings: Salmonella enterica subsp. enterica serovar Enteritidis
Candida albicans [6] = assay: Antimicrobial activity against Candida albicans; type: functional, organism-based
Aspergillus niger [7] = assay: Antifungal activity against Aspergillus niger; type: functional, organism-based
Staphylococcus aureus [8] = assay: Antibacterial activity against Staphylococcus aureus […] at 100 ug/disk by paper disk method; type: functional, organism-based
Bacillus subtilis [9] = assay: Antibacterial activity against Bacillus subtilis NBRC3134 assessed as zone of inhibition at 50 ug/disk by paper disk method; type: functional, organism-based
Aspergillus fumigatus [10] = assay: Antifungal activity against Aspergillus fumigatus assessed as zone of inhibition at 6.25 ug/disk by paper disk method; type: functional; settings: read-out: IZ
Candida albicans [11] = assay: Antimicrobial activity against Candida albicans at 50 ug/disk by paper disk method; type: functional, organism-based
Escherichia coli [12] = assay: Antibacterial activity against Escherichia coli NBRC14237 assessed as zone of inhibition at 50 ug/disk by paper disk method; type: functional, organism-based
Salmonella enteritidis [13] = assay: Antibacterial activity against Salmonella enteritidis NBRC3313 assessed as zone of inhibition at 50 ug/disk by paper disk method; type: functional, organism-based; settings: Salmonella enterica subsp. enterica serovar Enteritidis
Staphylococcus aureus [14] = assay: Antibacterial activity against Staphylococcus aureus […] assessed as zone of inhibition at 50 ug/disk by paper disk method; type: functional, organism-based
Cryptococcus neoformans [15] = assay: Antimicrobial activity against Cryptococcus neoformans at 50 ug/disk by paper disk method; type: functional, organism-based
Aspergillus niger [16] = assay: Antifungal activity against Aspergillus niger at 50 ug/disk by paper disk method; type: functional, organism-based

Compound | Activity (Bacillus subtilis [1]) | Activity (Escherichia coli [2]) | Activity (Aspergillus fumigatus [3]) | Activity (Cryptococcus neoformans [4]) | Activity (Salmonella enteritidis [5]) | Activity (Candida albicans [6]) | Activity (Aspergillus niger [7]) | Activity (Staphylococcus aureus [8]) | Activity (Bacillus subtilis [9]) | zone of inhibition at 6.25 µg/disc (Aspergillus fumigatus [10]) [mm] | Activity (Candida albicans [11]) | Activity (Escherichia coli [12]) | Activity (Salmonella enteritidis [13]) | Activity (Staphylococcus aureus [14]) | Activity (Cryptococcus neoformans [15]) | Activity (Aspergillus niger [16])
CC[C@H](C)[C@H]1C(=O)N[C@@H](CC(=O)OC)C(=O)N(C)[C@@H](C(C)C)C(=O)N[C@@H](CC(C)C)C(=O)O[C@@H](C)C(=O)N2CCCC[C@H]2C(=O)N(C)[C@@H](C(C)C)C(=O)N[C@@H](C(C)C)C(=O)N(C)[C@@H](CC(=O)OC)C(=O)N(C)[C@@H]([C@@H](C)CC)C(=O)N1C (cyclo(D(OMe)[NMeV]L[Lac][Pip][NMeV]V[NMeD](OMe)[NMeI][NMeI])) | inactive | inactive | inactive | inactive | inactive | inactive | inactive | inactive |  |  |  |  |  |  |  | 
CC[C@H](C)[C@H]1C(=O)N[C@@H](CC(=O)O)C(=O)N(C)[C@@H](C(C)C)C(=O)N[C@@H](CC(C)C)C(=O)O[C@@H](C)C(=O)N2CCCC[C@H]2C(=O)N(C)[C@@H](C(C)C)C(=O)N[C@@H](C(C)C)C(=O)N(C)[C@@H](CC(=O)O)C(=O)N(C)[C@@H]([C@@H](C)CC)C(=O)N1C [EUJAVANICIN A] (cyclo(D[NMeV]L[Lac][Pip][NMeV]V[NMeD][NMeI][NMeI])) | inactive | inactive |  |  | inactive |  |  | inactive | inactive | 23 | inactive | inactive | inactive | inactive | inactive | inactive

Source: ChEMBL document CHEMBL1156658, “Antifungal cyclic depsipeptide, eujavanicin A, isolated from Eupenicillium javanicum” (2008)
